Source: patent US8952073B2, “Estrogenic compounds, process for their production and pharmaceutical uses thereof” (The University of Ottawa, priority 2008, dated 2015)
Values joined by “and” are separate entries in the source; they are usually repeats but may differ in a detail not shown here. Identical values can stand only once. Like-named read-outs stand apart in the source and are kept apart here.

Experiments:
ERα [1] = molecular target: T1, ERα (Homo sapiens, UniProt P03372); experiment: Relative binding affinity (RBA), radiolabel competition assay, estrogen alpha receptor; settings: for RBAα: estradiol=100; for RBA for ERα: relative to estradiol (set at 100%)
T1 sequence (P03372 1-595): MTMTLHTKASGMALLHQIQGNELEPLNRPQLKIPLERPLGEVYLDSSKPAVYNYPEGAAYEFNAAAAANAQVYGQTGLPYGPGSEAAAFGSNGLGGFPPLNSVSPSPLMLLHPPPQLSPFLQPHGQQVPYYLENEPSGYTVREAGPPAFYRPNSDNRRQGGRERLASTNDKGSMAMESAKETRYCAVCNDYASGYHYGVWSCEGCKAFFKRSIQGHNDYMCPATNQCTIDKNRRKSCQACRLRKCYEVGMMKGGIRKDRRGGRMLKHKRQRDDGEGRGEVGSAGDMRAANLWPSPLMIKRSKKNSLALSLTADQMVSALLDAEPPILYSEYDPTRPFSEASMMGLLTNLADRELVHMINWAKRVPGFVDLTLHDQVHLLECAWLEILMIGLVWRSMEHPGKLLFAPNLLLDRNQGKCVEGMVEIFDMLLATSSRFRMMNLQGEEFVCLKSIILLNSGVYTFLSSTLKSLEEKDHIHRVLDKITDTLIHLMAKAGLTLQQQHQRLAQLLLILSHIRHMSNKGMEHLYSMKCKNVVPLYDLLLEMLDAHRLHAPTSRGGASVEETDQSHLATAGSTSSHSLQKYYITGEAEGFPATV

ERβ [2] = molecular target: T2, ERβ (Homo sapiens, UniProt Q92731); experiment: Relative binding affinity (RBA), radiolabel competition assay, estrogen beta receptor; settings: for RBAβ: estradiol=100; for RBA for ERβ: relative to estradiol (set at 100%)
T2 sequence (Q92731 whole entry): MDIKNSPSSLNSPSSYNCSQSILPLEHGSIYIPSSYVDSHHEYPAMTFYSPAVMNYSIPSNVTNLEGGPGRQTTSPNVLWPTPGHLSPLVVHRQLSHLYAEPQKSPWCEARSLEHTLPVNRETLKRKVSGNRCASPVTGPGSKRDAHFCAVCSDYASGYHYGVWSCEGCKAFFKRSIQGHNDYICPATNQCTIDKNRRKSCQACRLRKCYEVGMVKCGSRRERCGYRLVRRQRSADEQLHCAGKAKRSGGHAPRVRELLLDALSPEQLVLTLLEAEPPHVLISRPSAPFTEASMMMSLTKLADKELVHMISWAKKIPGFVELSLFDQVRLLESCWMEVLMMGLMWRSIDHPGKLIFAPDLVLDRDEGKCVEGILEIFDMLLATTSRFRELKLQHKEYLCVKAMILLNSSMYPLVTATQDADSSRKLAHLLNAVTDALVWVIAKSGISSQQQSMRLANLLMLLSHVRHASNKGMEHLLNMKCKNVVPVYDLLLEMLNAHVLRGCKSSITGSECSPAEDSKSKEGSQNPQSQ

ERβ vs. ERα = settings: literature values; cited from earlier work
ERα [3] = molecular target: T1, ERα; experiment: Relative transcription assay (RTA), estrogen response element driven luciferase, estrogen alpha receptor; type: cell-based; settings: for RTAα: relative transcription activity, estradiol=100
ERβ [4] = molecular target: T2, ERβ; experiment: Relative transcription assay (RTA), estrogen response element driven luciferase, estrogen beta receptor; type: cell-based; settings: for RTAβ: relative transcription activity, estradiol=100; for hormonal potency / transcriptional activation at ERβ, in words: result in words
intact hepatocytes = settings: read-out: LC50, 2 hour exposure
[5] = 9-hydroxy compounds, natural stereochemistry at C9
[6] = double bond in ring C (C9-C11 or C9-C8), tested as mixtures except entries 16, 17, 19, 20, 25, 26
[7] = double bond in ring C, mixtures except entries 16, 17, 19, 20, 25, 26
[8] = ring C saturated compounds, natural stereochemistry at C9

C[C@]12CC[C@](O)(c3ccc(O)cc3F)CC1CC[C@@H]2O (stereo partly drawn) [Entry 29]
RBAα (ERα [1]; [5]): 0.17
decrease in binding affinity (ERβ [2]; 9-hydroxy compound compared to the saturated analog): 37 fold
RBAβ/RBAα (ERβ [2]; [5]): 21
RBAβ (ERβ [2]; [5]): 3.6

C[C@]12CC=C(c3cc(F)c(O)cc3F)CC1CC[C@@H]2O (stereo partly drawn) [Entry 16]
RBAα (ERα [1]; [6]): 0.44
RBAβ/RBAα (ERβ [2]; [7]): 5.1
RBAβ (ERβ [2]; [6]): 2.6

C=Cc1cc(O)cc2nc(-c3ccc(O)c(F)c3)oc12 [ERB-041]
binding affinity ERβ/ERα ratio (ERβ vs. ERα): 226

C[C@]12CCC(c3ccc(O)cc3CCSCc3ccccc3)=CC1CC[C@@H]2O (stereo partly drawn) [Entry 26]
RBAα (ERα [1]; [6]): 0.31
RBAβ/RBAα (ERβ [2]; [7]): 0.86
RBAβ (ERβ [2]; [6]): 0.27
RTAα (ERα [3]): 6.7
Ratio RTAβ/RTAα (ERβ [4]): 2.2
RTAβ (ERβ [4]): 15.6

C[C@]12CC[C@H](c3cc(F)c(O)c(F)c3)CC1CC[C@@H]2O (stereo partly drawn) [Entry 4]
RBAα (ERα [1]; [8]): 0.4
RBAβ (ERβ [2]; [8]): 0.28
RBAβ/RBAα (ERβ [2]; [8]): 7.0

C[C@]12CC[C@](O)(c3ccc(O)cc3)CC1CC[C@@H]2O (stereo partly drawn) [Entry 27]
RBAα (ERα [1]; [5]): 0.01
RBAβ/RBAα (ERβ [2]; [5]): 10
RBAβ (ERβ [2]; [5]): 0.1

C[C@]12CC[C@H](c3ccc(O)cc3)CC1CC[C@@H]2O (stereo partly drawn) [Entry 1]
RBAα (ERα [1]; [8]): 1.5
RBA for ERα (ERα [1]): 1.7% and 1.5%
selective binding, favouring ERβ by a factor (ERβ [2]; ERβ over ERα): 15
RBAβ (ERβ [2]; [8]): 21.5
RBA for ERβ (ERβ [2]): 21.5%
RBAβ/RBAα (ERβ [2]; [8]): 14.6
RTAα (ERα [3]): 4.3
RTAα (ERα [3]; listed as 1*): −8.9
Ratio RTAβ/RTAα (ERβ [4]): 38
RTAβ (ERβ [4]): 164
RTAβ (ERβ [4]; listed as 1*): 7.7
CC50 at 2 h (in vitro; intact hepatocytes): 320 to 400 µM

C[C@]12CC[C@@H]3c4ccc(O)cc4CC[C@H]3[C@@H]1CC[C@@H]2O [Estradiol, 17β-estradiol, reference compound]
RTAβ (ERβ [4]): 100
CC50 at 2 h (in vitro): 400 to 450 µM

C[C@]12CC[C@](O)(c3ccc(O)c(F)c3)CC1CC[C@@H]2O (stereo partly drawn) [Entry 28]
RBAα (ERα [1]; [5]): 0.009
RBAβ/RBAα (ERβ [2]; [5]): 13
RBAβ (ERβ [2]; [5]): 0.12

C[C@]12CC=C(c3ccc(O)cc3Cl)CC1CC[C@@H]2O (stereo partly drawn) [Entry 19]
RBAα (ERα [1]; [6]): 60
RBAβ/RBAα (ERβ [2]; [7]): 2.0
RBAβ (ERβ [2]; [6]): 118
RTAα (ERα [3]): 120
Ratio RTAβ/RTAα (ERβ [4]): 1.6
RTAβ (ERβ [4]): 157

C[C@]12CC=C(c3ccc(O)cc3CCSCc3ccccc3)CC1CC[C@@H]2O (stereo partly drawn) [Entry 25]
RBAα (ERα [1]; [6]): 0.32
RBAβ/RBAα (ERβ [2]; [7]): 2.2
RBAβ (ERβ [2]; [6]): 0.76

C[C@]12CC[C@H](c3ccc(O)c(F)c3)CC1CC[C@@H]2O (stereo partly drawn) [Entry 2]
RBAα (ERα [1]; [8]): 1.0
RBA for ERα (ERα [1]): 1.0%
RBAβ (ERβ [2]; [8]): 8.7
RBA for ERβ (ERβ [2]): 8%
RBAβ/RBAα (ERβ [2]; [8]): 8.7
RTAα (ERα [3]): −8.3
RTAβ (ERβ [4]): 14
hormonal potency / transcriptional activation at ERβ, in words (ERβ [4]): weak agonist for ERβ
CC50 at 2 h (in vitro; intact hepatocytes): 400 to 450 µM

N#Cc1cc(-c2ccc(O)c(F)c2)cc2ccc(O)cc12 [WAY 202196]
binding affinity ERβ/ERα ratio (ERβ vs. ERα): 78

C[C@]12CC[C@H](c3ccc(O)c(F)c3F)CC1CC[C@@H]2O (stereo partly drawn) [Entry 5]
RBAα (ERα [1]; [8]): 4.6
RBAβ (ERβ [2]; [8]): 42.8
RBAβ/RBAα (ERβ [2]; [8]): 9.3
RTAα (ERα [3]): 18
Ratio RTAβ/RTAα (ERβ [4]): 8.4
RTAβ (ERβ [4]): 151
CC50 at 2 h (in vitro; intact hepatocytes): 155 to 200 µM

C[C@]12CC[C@H](c3cc(F)c(O)c(F)c3F)CC1CC[C@@H]2O (stereo partly drawn) [Entry 7]
RBAα (ERα [1]; [8]): 0.19
RBAβ (ERβ [2]; [8]): 1.73
further reduction in binding, factor (ERβ [2]; in comparison with entry 3): about 10
RBAβ/RBAα (ERβ [2]; [8]): 9.1
RTAα (ERα [3]): 11
Ratio RTAβ/RTAα (ERβ [4]): 4.8
RTAβ (ERβ [4]): 53
CC50 (intact hepatocytes): > 600 µM
CC50 at 2 h (in vitro; intact hepatocytes): > 600 µM

C[C@]12CC[C@](O)(c3cc(F)c(O)c(F)c3)CC1CC[C@@H]2O (stereo partly drawn) [Entry 30]
RBAα (ERα [1]; [5]): 0.005
RBAβ/RBAα (ERβ [2]; [5]): 4.6
RBAβ (ERβ [2]; [5]): 0.023

C[C@]12CCC(c3cc(F)c(O)cc3F)=CC1CC[C@@H]2O (stereo partly drawn) [Entry 17]
RBAα (ERα [1]; [6]): 0.38
RBAβ/RBAα (ERβ [2]; [7]): 6.8
RBAβ (ERβ [2]; [6]): 3.3

Cc1cc(O)ccc1[C@H]1CC[C@@]2(C)C(CC[C@@H]2O)C1 (stereo partly drawn) [Entry 9]
RBAα (ERα [1]; [8]): 2.8
RBAβ (ERβ [2]; [8]): 33.6
RBAβ/RBAα (ERβ [2]; [8]): 11.9
RTAα (ERα [3]): −9.7
RTAβ (ERβ [4]): 149

C[C@]12CC[C@H](c3ccc(O)cc3F)CC1CC[C@@H]2O (stereo partly drawn) [Entry 3]
RBAα (ERα [1]; [8]): 27.3
RBAβ (ERβ [2]; [8]): 135.5
RBA for the ERβ receptor compared with estradiol, in words (ERβ [2]; result in words): exceeded that of estradiol itself
RBAβ/RBAα (ERβ [2]; [8]): 5.0
RTAα (ERα [3]): 44
transcriptional activation at ERα, in words (ERα [3]; result in words): both an ERα and an ERβ agonist
Ratio RTAβ/RTAα (ERβ [4]): 3.6
RTAβ (ERβ [4]): 162
hormonal potency / transcriptional activation at ERβ, in words (ERβ [4]): both an ERα and an ERβ agonist
CC50 at 2 h (in vitro; intact hepatocytes): 250 to 280 µM

C[C@]12CCC(c3ccc(O)cc3Cl)=CC1CC[C@@H]2O (stereo partly drawn) [Entry 20]
RBAα (ERα [1]; [6]): 195
RBAβ/RBAα (ERβ [2]; [7]): 1.7
RBAβ (ERβ [2]; [6]): 331
RTAα (ERα [3]): 98
Ratio RTAβ/RTAα (ERβ [4]): 2.1
RTAβ (ERβ [4]): 188

C[C@]12CC[C@H](c3ccc(O)cc3Cl)CC1CC[C@@H]2O (stereo partly drawn) [Entry 8]
RBAα (ERα [1]; [8]): 55.3
RTAα (ERα [3]): 88
RTAβ (ERβ [4]): 188
